Data from patent publication US4576951A, “Proglumide, pharmaceutical preparations and compositions including it for use in human pain relief” (priority 1983, dated 1986).
Like-named read-outs stand apart in the source and are kept apart here.

Tests used:
[1] = Tail Flick Test after transcutaneous shock: analgesic activity of endogenous opiates; format: in vivo, rats
Procedure: Influence of proglumide on the analgesic activity of endogenous opiates released under transcutaneous shock in rats measured by the Tail Flick Test The method is that described by Lewis et al. (J. Naurosc. 1, 358 (1981)). Male rats having a weight of about 200 g, which have not been fasting, are used. The animals are stressed by the application to the front leg of a 60 Hz-2.5 mA current in pulses of a duration of one second every five seconds for 20 minutes. This stress regime causes the release of endogenous opiates.

[2] = format: in vivo, rats
Procedure: Activity of proglumide as an antagonist to the tolerance induced by opiates
Groups of five male rats having a weight of about 200-250 g were used.
The determination of the pain threshold was effected 1, 3, 6, 9 and 12 hours after the first treatment by the Tail Flick test.
The data given in Table 5 indicate the percentage variations in the latency (appearance of pain) before and after treatment with the drugs.

[3] = format: in vivo, rats; remark: listed apart in the source
Procedure: The method is that described by Harris et al. (J. Pharmcol. Exp. Ther. 143 (1964) 141-148).
Male rats are used which have a weight of about 150-200 g and which have not been fasting. A point is chosen on the tail and this is irradiated by a heat source (75° C.) and the time (in seconds) for which the animal remains without moving its tail is measured.
A maximum period of time under the heat source of 8 seconds is chosen after which the animal is, in any case, removed in order to avoid tissue damage. The measurement is effected before (controls) and after treatment with the drugs. […] The percentage variation is calculated for each individual animal by the following formula: [formula] (time measurements are in seconds)
The measurements are carried out 10, 20, 30, 45, 60 and 90 minutes after treatment with the analgesics.

in vivo = settings: mouse, sc
Procedure: The drug (or drugs) under examination was administered sub-cutaneously. The animals were kept under observation for 15 days after the administration.
Ten animals were used for each dose.

[4] = Hot plate test: potentiation of analgesic activity of opiates; format: in vivo, rats; settings: proglumide 5 mg/kg s.c.
Procedure: The method is that described by Eddy et al. (J. Pharmac. Exp. Therm. 107, 385 (1953)).
Groups of five male rats having a weight of about 150 g and which have not been fasting are used.
The animals are placed on a metal plate which is on the bottom of a transparent cylinder heated to 55°±1° C. by an azeotropic boiling mixture (1:1 acetone-ethyl formate). The time which passes between the moment at which the animal is placed on the hot plate and the moment at which it licks its feet or tries to jump out of the cylinder is defined as the reaction time. The control reaction time is measured 10 and 5 minutes before the administration of the drugs and 10, 20, 30, 45, 60, 90 minutes afterwards. The animals are left on the plate for a maximum period of 30 seconds. The response to the administration of the product is considered positive if at least a doubling of the normal reaction time is seen. The results obtained are given in Table 2 which records the groups treated, the doses administered and the stay times on the plate expressed as the number of positive responses over the number treated.

[5] = Potentiation of analgesic effect of enkephalinamide (DALA) i.c.v. (Tail Flick test); format: in vivo, rats
Procedure: Potentiation of the analgesic activities of enkephalins induced by proglumide
In order to check one of the possible mechanisms for the action of proglumide, that is its possible inhibition of the enzymatic degradation of endogenous enkephalins, the following experiment was carried out:
A cannula was implanted in the right lateral ventricle of male rats having a weight of 150-200 g (groups of five animals were used) in order to allow the intracerebroventricular (I.C.V.) administration of drugs according to the method of Noble et al (Life Science 6, (1970) 281-291). […]

[6] = 1 min, proglumide 20 mg/kg, no stress
[7] = 1 min, stress + proglumide 1 mg/kg
[8] = 1 min, stress + proglumide 5 mg/kg
[9] = 1 min, stress + proglumide 20 mg/kg
[10] = 5 min, proglumide 20 mg/kg, no stress
[11] = 5 min, stress + proglumide 1 mg/kg
[12] = 5 min, stress + proglumide 5 mg/kg
[13] = 5 min, stress + proglumide 20 mg/kg
[14] = 10 min, proglumide 20 mg/kg, no stress
[15] = 10 min, stress + proglumide 1 mg/kg
[16] = 10 min, stress + proglumide 5 mg/kg
[17] = 10 min, stress + proglumide 20 mg/kg
[18] = 15 min, proglumide 20 mg/kg, no stress
[19] = 15 min, stress + proglumide 1 mg/kg
[20] = 15 min, stress + proglumide 5 mg/kg
[21] = 15 min, stress + proglumide 20 mg/kg

CCCN(CCC)C(=O)C(CCC(=O)O)NC(=O)c1ccccc1 (racemic) [Proglumide, D,L-4-benzamido-N, N-dipropylglutaramic acid]
Average latency (tail flick) [1, 6]: 3.66 ± 0.25 s | t (vs control stress) [1, 6]: 6.90 | t (vs control) [1, 6]: 0.37 | t (vs control stress) [1, 7]: 0.92 | t (vs control) [1, 7]: 5.21 | t (vs control stress) [1, 8]: 0.87 | t (vs control) [1, 8]: 4.25 | t (vs control stress) [1, 9]: 6.14 | t (vs control) [1, 9]: 9.54 | Average latency (tail flick) ([1]; 1 min after shock, stress + proglumide 1 mg/kg): 6.37 ± 0.45 s | Average latency (tail flick) ([1]; 1 min after shock, stress + proglumide 5 mg/kg): 6.33 ± 0.57 s | Average latency (tail flick) ([1]; 1 min after shock, stress + proglumide 20 mg/kg): 13.59 ± 1.0 s | Average latency (tail flick) [1, 10]: 3.59 ± 0.20 s | t (vs control stress) [1, 10]: 5.88 | t (vs control) [1, 10]: 1.36 | t (vs control stress) [1, 11]: 0.69 | t (vs control) [1, 11]: 5.18 | t (vs control stress) [1, 12]: 2.74 | t (vs control) [1, 12]: 5.62 | t (vs control stress) [1, 13]: 3.90 | t (vs control) [1, 13]: 7.29 | Average latency (tail flick) ([1]; 5 min after shock, stress + proglumide 1 mg/kg): 6.55 ± 0.43 s | Average latency (tail flick) ([1]; 5 min after shock, stress + proglumide 5 mg/kg): 8.5 ± 0.76 s | Average latency (tail flick) ([1]; 5 min after shock, stress + proglumide 20 mg/kg): 9.16 ± 0.67 s | Average latency (tail flick) [1, 14]: 3.57 ± 0.16 s | t (vs control stress) [1, 14]: 2.57 | t (vs control) [1, 14]: 0.12 | t (vs control stress) [1, 15]: 0.86 | t (vs control) [1, 15]: 1.83 | t (vs control stress) [1, 16]: 0.72 | t (vs control) [1, 16]: 2.98 | t (vs control stress) [1, 17]: 5.01 | t (vs control) [1, 17]: 7.02 | Average latency (tail flick) ([1]; 10 min after shock, stress + proglumide 1 mg/kg): 4.07 ± 0.22 s | Average latency (tail flick) ([1]; 10 min after shock, stress + proglumide 5 mg/kg): 4.66 ± 0.32 s | Average latency (tail flick) ([1]; 10 min after shock, stress + proglumide 20 mg/kg): 6.94 ± 0.44 s | Average latency (tail flick) [1, 18]: 3.57 ± 0.15 s | t (vs control stress) [1, 18]: 0.04 | t (vs control) [1, 18]: 1.49 | t (vs control stress) [1, 19]: 0.43 | t (vs control) [1, 19]: 0.82 | t (vs control stress) [1, 20]: 0.98 | t (vs control) [1, 20]: 0.11 | t (vs control stress) [1, 21]: 3.34 | t (vs control) [1, 21]: 2.89 | Average latency (tail flick) ([1]; 15 min after shock, stress + proglumide 1 mg/kg): 3.68 ± 0.16 s | Average latency (tail flick) ([1]; 15 min after shock, stress + proglumide 5 mg/kg): 3.81 ± 0.16 s | Average latency (tail flick) ([1]; 15 min after shock, stress + proglumide 20 mg/kg): 4.78 ± 0.32 s | effect on the analgesic effect of endogenous enkephalins ([1]; proglumide 5 mg/kg): can increase (in one case significantly) | effect on the analgesic effect of endogenous enkephalins ([1]; proglumide 20 mg/kg): significantly more marked both in intensity and duration | antagonism of development of tolerance ([2]; proglumide 20 mg/kg): highly significant | effect on development of tolerance induced by morphine ([2]; rat, in vivo, ip): opposes the development of tolerance | ED50 for potentiation of the analgesic effect (proglumide increasing effect by 50%) ([3]; rat, in vivo, ip): 4.15 mg/kg | ED50 for potentiation of the analgesic effect (proglumide increasing effect by 50%) ([3]; strengthening of propoxyphene): 2.26 mg/kg | LD50 at 360 h (in vivo): > 5000 mg/kg | increase of the analgesic effect of morphine and methadone [4]: at least double | % variation in the latency to pain ([5]; 5 min, alone i.c.v.: proglumide 1 or DALA 10 μg/kg): 18.06 ± 10.8% | % variation in the latency to pain ([5]; 15 min, alone i.c.v.: proglumide 1 or DALA 10 μg/kg): 2.18 ± 10.6% | % variation in the latency to pain ([5]; 30 min, alone i.c.v.: proglumide 1 or DALA 10 μg/kg): 18.36 ± 5.9% | % variation in the latency to pain ([5]; 45 min, alone i.c.v.: proglumide 1 or DALA 10 μg/kg): -10.94 ± 14.5% | % variation in the latency to pain ([5]; 60 min, alone i.c.v.: proglumide 1 or DALA 10 μg/kg): -5.58 ± 8.1% | % variation in the latency to pain ([5]; 90 min, alone i.c.v.: proglumide 1 or DALA 10 μg/kg): 13.3 ± 8.4% | Average (0 → 90) % variation in the latency to pain ([5]; alone i.c.v.: proglumide 1 or DALA 10 μg/kg): 5.9 ± 5.12% | action on the analgesic effect of the enkephalinamide (DALA) ([5]; i.c.v.): potentiating action of proglumide on the analgesic effect of the enkephalinamide (DALA) both in intensity and duration | significance of potentiating action on DALA analgesia ([5]; proglumide 1 μg/kg): highly significant
